Reference: US20230233305A1, “METHOD OF AMELIORATING OR TREATING INFLAMMATORY IN AN ORAL CAVITY” (priority 2022, published 2023)

Columns and labels:
[1] = tested on: domestic cats with feline chronic gingivostomatitis (FCGS); assay: Stomatitis disease activity index (SDAI) after mucogingival replacement surgery; type: in vivo
Source text: The stomatitis disease activity index is to score the condition of the subject by the following three aspects respectively and then add three scores to get the index: (1) owner evaluation (total score 0-3): the quality of life including appetite, activity level, grooming behavior, and perceived comfort would be scored by the owner, with a scale of 0-3, 0 is the best, and 3 is the worst; (2) weight (total score 0-3): the change in weight compared to most recent visit, with a scale of 0-3, 0 is an increase of more than 0.5 kg, 1 is an increase of 0.25-0.5 kg, 2 is an increase of 0-0.25 kg, and 3 is weight loss; (3) inflammatory symptoms (total score 0-24): inflammation in 8 different areas of the oral cavity, including maxillary buccal mucosa, mandibular buccal mucosa, maxillary attached gingiva, mandibular attached gingiva, lateral to palatoglossal folds, molar salivary gland, oropharynx, and sublingual area, with scale of 0-3, 0 is none, 1 is mild, 2 is moderate, and 3 is severe.

[2] = tested on: VDR; assay: Immunohistochemistry of inflamed oral mucosal tissue with anti-VDR; type: in vivo, domestic cats; details: after 6-week treatment vs 0th week
Method: (§1) The procedure of immunohistochemistry is briefly described as following. All steps are performed on the Leica Bond Max automatic immunohistochemistry machine. The aforementioned inflamed oral mucosal tissues fixed with formalin and embedded in paraffin is sectioned with a thickness of 5 μm, and placed on a glass slide suitable for performing immunohistochemistry. The tissue section is placed in a 50° C. oven for 15 minutes and is dewaxed twice with Bond Dewax Solution for 5 minutes. The tissue section is washed three times with Tris buffered saline (TBS, pH 7.6) for 5 minutes, and then treated with Bond Leica Alcohol for 5 minutes for tissue rehydration. After being washed three times with TBS for 5 minutes, the tissue section is heated at 100° C. with Bond Citrate buffer (pH 6), and the tissue used for detecting VDR is heated for 20 minutes, and the tissue used for detecting LC3B is heated for 40 minutes. After being washed three times with TBS for 5 minutes, the tissue section is reacted with Bond Peroxide solution for 8 minutes. After being washed three times with TBS for 5 minutes, the tissue section is reacted with Bond Protein blocking solution for 10 minutes. After being washed three times with TBS for 5 minutes, the tissue section is reacted with the primary antibodies for 30 minutes at room temperature, wherein the dilution ratio of anti-VDR antibody (ab3508) is 500×, and the dilution ratio of anti-LC3B antibody (ab239416) is 50×. After being washed three times with TBS for 5 minutes, the tissue section is reacted with Bond Post primary solution containing rabbit anti-mouse IgG antibody for 10 minutes. After being washed three times with TBS for 5 minutes, the tissue section is reacted with Bond Post primary solution containing Poly-HPR IgG for 10 minutes. After being washed three times with TBS for 5 minutes, the tissue section is reacted twice with Bond DAB solution for 3 minutes for coloration. […] The staining intensity and frequency of oral mucosal epithelial cells in the tissues are evaluated by the method provided by Shackelford. […]

[3] = tested on: LC3B; assay: Immunohistochemistry of inflamed oral mucosal tissue with anti-LC3B; type: in vivo, domestic cats; details: after 6-week treatment vs 0th week
Method: as §1

[4] = 0th week, vitamin D 200 ng/kg oral + 5 mg/kg deoxytetracycline (control: deoxytetracycline only), 5 mg/kg
[5] = 6th week, vitamin D 200 ng/kg oral + 5 mg/kg deoxytetracycline (control: deoxytetracycline only), 5 mg/kg

Substance: deoxytetracycline [control group (A)]
- stomatitis disease activity index (SDAI) score ([1]; 0th week, vitamin D 200 ng/kg oral + 5 mg/kg deoxytetracycline (control: deoxytetracycline only)): 11.44
- stomatitis disease activity index (SDAI) score ([1]; 2nd week, 5 mg/kg deoxytetracycline): 9.19
- stomatitis disease activity index (SDAI) score ([1]; 6th week, vitamin D 200 ng/kg oral + 5 mg/kg deoxytetracycline (control: deoxytetracycline only)): 11.22
- VDR in the inflamed oral mucosal tissue (IHC intensity and frequency) [2]: decreases
- LC3B in the inflamed oral mucosal tissue (IHC intensity and frequency) [3]: basically maintains a constant value

Substance: vitamin D [fat-soluble vitamin D]
- stomatitis disease activity index (SDAI) score [1, 4]: 13
- stomatitis disease activity index (SDAI) score [1, 5]: 11.5
- VDR in the inflamed oral mucosal tissue (IHC intensity and frequency) [2]: increases
- LC3B in the inflamed oral mucosal tissue (IHC intensity and frequency) [3]: increases

Substance: vitamin D [water-soluble vitamin D]
- stomatitis disease activity index (SDAI) score [1, 4]: 17.67
- stomatitis disease activity index (SDAI) score [1, 5]: 13.92
- VDR in the inflamed oral mucosal tissue (IHC intensity and frequency) [2]: remains unchanged
- LC3B in the inflamed oral mucosal tissue (IHC intensity and frequency) [3]: increases
